“Also recorded” adds a separate entry of the source.

One test concerns rats. To be noted: cited from earlier work.
The test system of the next test is Long-Evans rats. The experiment in a line: Ethanol (10% v/v) vs. water self-administration after infusion in the PVN, sucrose-faded rats with long-term ethanol history. The format is in vivo, rat. From the text:
The effectiveness of known NPY receptor antagonists and NPY Y1-selective or Y5selective receptor antagonists in reducing craving for alcohol and reducing self-administration of alcohol can be tested in experimental animal models. Briefly, Long-Evans rats are conditioned to the laboratory environment and trained to self-administer concurrent ethanol (10% v/v) vs. water using a sucrose-fading procedure (H. H. Samson, Alcohol Clin. Exp. Res., 1986, 10:436442) as described by Hodge et al. (Alcohol, 1993, 10:191-196). Stereotaxic surgery is performed to implant injector guide cannulae aimed at the PVN. Microinjections of test compounds are given, with and without concomitant injection of NPY, into the PVN of the conditioned rats, which are then immediately given the opportunity to self-administer either water or ethanol (10% v/v). The volume of ethanol and water consumed are measured. Ethanol intake is converted from milliliters consumed to gram/kilogram body weight. Relative ethanol intake (preference) is calculated as […] of ethanol consumed divided by total fluid intake (ethanol+water […]). Drug dose effects are analyzed by one-way repeated measures analysis of variance (ANOVA). Post-hoc comparisons between drug doses and vehicle control are conducted using a paired t-test or Dunnett's t-test where appropriate (SigmaStat, Jandel, San Rafael, Calif.).
Animals. Thirty-six male Long-Evans rats (Harlan, Indianapolis, Ind.) were housed individually in Plexiglas cages. Access to water was restricted during the first day of behavioral training, but was continuously available for the remainder of the experiment. Food was always available in the home cage. In experimental chambers, ethanol (10% v/v) and water were available concurrently during daily (M-F) sessions. The animal colony room was maintained on a 12L:12D cycle with the lights on at 06:30. Experimental sessions were run during the light portion of the cycle. All experimental procedures were conducted under institutional and NIH guidelines.
Apparatus. Experimental sessions were conducted in Plexiglas chambers (27×37×21 cm) located in sound-attenuating cubicles (MED Associates, model ENV 016M, Lafayette, Ind.). Chambers were equipped with exhaust fans that masked external noise. The right wall of each chamber contained two 50-ml drinking bottles. Drug solutions were administered bilaterally through stainless steel injectors (Plastics One, Roanoke, Va.), which were connected via plastic tubing to two 1.0 μl syringes (Hamilton, Reno, Nev.). Syringes were mounted on a micro-infusion pump (Harvard Apparatus, Model 22, Natick, Mass.) set to deliver 0.5 μl/min/syringes.
Self-administration procedures. After 2 weeks of adaptation to laboratory housing conditions, fluid access was restricted to 1-h per day (for 2 days only) and two groups of rats (n=12 per group) were trained to drink from the bottles in the experimental chambers by overnight access to sucrose (10% w/v) vs. water during one overnight session. Daily 1 hour sessions were then conducted with sucrose (10% w/v) vs. water available concurrently. The location (i.e., left or right side of the chamber) of the sucrose and water solutions was alternated daily. When sucrose and water intake patterns stabilized, the rats were trained to self-administer concurrent ethanol (10% v/v) vs. water using a sucrose-fading procedure (H. H. Samson, Alcohol Clin. Exp. Res., 1986, 10:436-442) as previously described (e.g., Hodge et al., 1993). Briefly, ethanol was gradually added to the sucrose solution and then sucrose was faded out of the solution until rats were self-administering 10% ethanol vs. water. During the 2-month sucrose-fading procedure, the location of the ethanol/sucrose solution and water were alternated daily.

Test [1] concerns rats trained to self-administer ethanol vs. water. The experiment in a line: Microinjection in the central nucleus of the amygdala (CeA), ethanol vs. water self-administration. It counts as in vivo, rat. How it is done: FIG. 4 depicts a dose response curve showing the effects the NPY-Y1 antagonist BIBP 3226 in the central nucleus of the Amygdala.
To further elucidate the role of NPY receptors in alcohol-seeking behavior, the NPY-Y1 […] BIBP 3226 was injected in the central nucleus of the amygdala (CeA) of rats trained to self-administer ethanol vs. water as described (Kelley et al., 2001 Peptides 22: 515-522). The CeA was chosen as an additional test site because, in addition to the hypothalamus, this brain region contains significant numbers of NPY receptors.

The target of a further test is T1, Y1 receptor (Homo sapiens, UniProt P25929).
T1 sequence (P25929 1-384): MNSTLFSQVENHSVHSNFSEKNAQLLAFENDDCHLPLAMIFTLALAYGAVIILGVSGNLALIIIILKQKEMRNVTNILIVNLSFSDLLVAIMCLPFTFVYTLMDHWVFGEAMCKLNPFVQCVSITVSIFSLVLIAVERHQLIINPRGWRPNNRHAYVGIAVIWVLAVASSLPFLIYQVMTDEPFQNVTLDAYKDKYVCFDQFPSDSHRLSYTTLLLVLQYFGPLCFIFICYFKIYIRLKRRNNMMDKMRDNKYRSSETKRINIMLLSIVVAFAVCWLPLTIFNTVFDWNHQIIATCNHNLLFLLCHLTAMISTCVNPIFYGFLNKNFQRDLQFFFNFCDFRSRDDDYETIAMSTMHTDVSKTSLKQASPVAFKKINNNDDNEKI
To be noted: cited from earlier work.

Where [2] appears, read: BIBP 3226 (10.6 μm) alone in the PVN.

Turning to `N=C(N)NCCC[C@@H](NC(=O)C(c1ccccc1)c1ccccc1)C(=O)NCc1ccc(CNC(N)=O)cc1.O=C(O)C(F)(F)F` [BIBO 3304, (R)-N-[[4-(aminocarbonylaminomethyl)-phenyl]methyl]-N^2-(diphenylacetyl)arginine amide trifluoroacetate], the “food intake induced by application of NPY or by fasting” value with rats (rats) is given as “significantly inhibits food intake”.
Take `N=C(N)NCCC[C@@H](NC(=O)C(c1ccccc1)c1ccccc1)C(=O)NCc1ccc(O)cc1` [BIBP 3226, (R)-N^2-(diphenylacetyl)-N-[(4-hydroxyphenyl)methyl]-D-arginine amide]: in the test with Long-Evans rats (setting [2]), the ethanol intake result is “no significant effect”, the ethanol preference result is listed as “no significant effect” and the water intake entry was “no significant effect”. Further, the “NPY-induced increase in ethanol intake” value in the test on Long-Evans rats (BIBP 3226 co-administered with NPY (10 fmol) in the PVN) is reported as “completely blocked”. For the same compound, the “dose of self-administered ethanol” value in test [1] (BIBP 3226 in the CeA, highest dose, 1-hour sessions, vs vehicle, p<0.05) is “reduced ethanol self-administration after infusion of the highest dose; also recorded: significantly reduced alcohol self-administration; also recorded: significantly reduced the dose of alcohol that was self-administered”. Further, the water intake entry in test [1] (BIBP 3226 injected in the CeA) is “no effect on water intake”.
For the compound “NPY 2-36: an N-terminal truncated NPY fragment”, in the test with Y1 receptor, the “affinity for the Y1 receptor subtype” value is listed as “low potency”.
With “[Pro^34]-NPY: Y1 agonist that stimulates feeding”, the “food intake relative to that seen following the injection of NPY” value in the test on rats (rat, in vivo) was “approximately 50%”.

The values above are taken from patent US20040029953A1, “Use of neuropeptide-y antagonists in treatment of alcoholism” (priority 2000, published 2004).
